Results taken from ChEMBL document CHEMBL3885881, “DrugMatrix”.

Organism: Rattus norvegicus
Assay: DrugMatrix - Regimen: Daily Repeat
Type: toxicity, organism-based, Sprague-Dawley
Set-up: regimen Daily Repeat, gender Male, age 6-8 weeks
Conditions: in vivo, po, route oral GAVAGE, vehicle 100 % WATER; for ABSOLUTE BASOPHIL / ABSOLUTE EOSINOPHIL / ABSOLUTE LYMPHOCYTE / ABSOLUTE MONOCYTE / ABSOLUTE SEGMENTED NEUTROPHIL / BASOPHIL / EOSINOPHIL / ERYTHROCYTE COUNT / HEMATOCRIT / HEMOGLOBIN / LEUKOCYTE COUNT / LYMPHOCYTE / MEAN CORPUSCULAR HEMOGLOBIN / MEAN CORPUSCULAR HEMOGLOBIN CONCENTRATION / MEAN CORPUSCULAR VOLUME / MONOCYTE / NEUTROPHIL / NUCLEATED RED BLOOD CELLS / PLATELET COUNT: tissue Blood; for ALANINE AMINOTRANSFERASE / ALBUMIN / ALKALINE PHOSPHATASE / ASPARTATE AMINOTRANSFERASE / BLOOD UREA NITROGEN / CARBON DIOXIDE / CHLORIDE / CHOLESTEROL / CREATINE PHOSPHOKINASE / CREATININE / GLUCOSE / LACTATE DEHYDROGENASE / LIPASE / PHOSPHORUS / POTASSIUM / SODIUM / TOTAL BILIRUBIN / TOTAL PROTEIN / URIC ACID: tissue Plasma
[1] = 39 mg/kg, 120 h, dose level Low, time 5 day
[2] = 150 mg/kg, 72 h, dose level High, time 3 day
[3] = 150 mg/kg, 120 h, dose level High, time 5 day

## C[C@]12Cc3c[nH]nc3C[C@@H]1CC[C@@H]1[C@@H]2CC[C@@]2(C)[C@H]1CC[C@]2(C)O [STANOZOLOL]
[1]
  ABSOLUTE BASOPHIL: 0 CELLS/uL
  ABSOLUTE EOSINOPHIL: 55.33 CELLS/uL
  ABSOLUTE LYMPHOCYTE: 11411 CELLS/uL
  ABSOLUTE MONOCYTE: 142 CELLS/uL
  ABSOLUTE SEGMENTED NEUTROPHIL: 1025 CELLS/uL
  BASOPHIL: 0%
  EOSINOPHIL: 0.33%
  ERYTHROCYTE COUNT: 5.64 x10E6/uL
  HEMATOCRIT: 35.63%
  HEMOGLOBIN: 13.63 G/DL
  LEUKOCYTE COUNT: 12.63 x10E3/uL
  LYMPHOCYTE: 90.33%
  MEAN CORPUSCULAR HEMOGLOBIN: 24.33 pg
  MEAN CORPUSCULAR HEMOGLOBIN CONCENTRATION: 38.33 G/DL
  MEAN CORPUSCULAR VOLUME: 63.43 fL
  MONOCYTE: 1.33%
  NEUTROPHIL: 8%
  NUCLEATED RED BLOOD CELLS: 0.67 /100WBC
  PLATELET COUNT: 1199.33 x10E3/uL
  ALANINE AMINOTRANSFERASE: 55.67 u/L
  ALBUMIN: 3.87 G/DL
  ALKALINE PHOSPHATASE: 492.33 u/L
  ASPARTATE AMINOTRANSFERASE: 81.67 u/L
  BLOOD UREA NITROGEN: 13.33 mg/dL
  CARBON DIOXIDE: 32.67 mmol/L
  CHLORIDE: 98.67 MEQ/L
  CHOLESTEROL: 35 mg/dL
  CREATINE PHOSPHOKINASE: 259.67 u/L
  CREATININE: 0.16 mg/dL
  GLUCOSE: 144 mg/dL
  LACTATE DEHYDROGENASE: 113 u/L
  LIPASE: 8 u/L
  PHOSPHORUS: 10.33 mg/dL
  POTASSIUM: 5.69 MEQ/L
  SODIUM: 144.47 MEQ/L
  TOTAL BILIRUBIN: 0.2 mg/dL
  TOTAL PROTEIN: 6.07 G/DL
  URIC ACID: 0.33 mg/dL
[2]
  ABSOLUTE BASOPHIL: 0 CELLS/uL
  ABSOLUTE EOSINOPHIL: 39.67 CELLS/uL
  ABSOLUTE LYMPHOCYTE: 9030.67 CELLS/uL
  ABSOLUTE MONOCYTE: 107.33 CELLS/uL
  ABSOLUTE SEGMENTED NEUTROPHIL: 755.67 CELLS/uL
  BASOPHIL: 0%
  EOSINOPHIL: 0.33%
  ERYTHROCYTE COUNT: 6.43 x10E6/uL
  HEMATOCRIT: 39.27%
  HEMOGLOBIN: 14.53 G/DL
  LEUKOCYTE COUNT: 9.93 x10E3/uL
  LYMPHOCYTE: 91%
  MEAN CORPUSCULAR HEMOGLOBIN: 22.63 pg
  MEAN CORPUSCULAR HEMOGLOBIN CONCENTRATION: 37.07 G/DL
  MEAN CORPUSCULAR VOLUME: 61.07 fL
  MONOCYTE: 1%
  NEUTROPHIL: 7.67%
  NUCLEATED RED BLOOD CELLS: 0.33 /100WBC
  PLATELET COUNT: 951 x10E3/uL
  ALANINE AMINOTRANSFERASE: 74 u/L
  ALBUMIN: 4.1 G/DL
  ALKALINE PHOSPHATASE: 493.67 u/L
  ASPARTATE AMINOTRANSFERASE: 138.33 u/L
  BLOOD UREA NITROGEN: 12.67 mg/dL
  CARBON DIOXIDE: 34.33 mmol/L
  CHLORIDE: 96.5 MEQ/L
  CHOLESTEROL: 46.67 mg/dL
  CREATINE PHOSPHOKINASE: 1177 u/L
  CREATININE: 0.14 mg/dL
  GLUCOSE: 134.33 mg/dL
  LACTATE DEHYDROGENASE: 200 u/L
  LIPASE: 11 u/L
  PHOSPHORUS: 11.53 mg/dL
  POTASSIUM: 6.12 MEQ/L
  SODIUM: 142.35 MEQ/L
  TOTAL BILIRUBIN: 0.33 mg/dL
  TOTAL PROTEIN: 6.33 G/DL
  URIC ACID: 0.5 mg/dL
[3]
  ABSOLUTE BASOPHIL: 0 CELLS/uL
  ABSOLUTE EOSINOPHIL: 31.33 CELLS/uL
  ABSOLUTE LYMPHOCYTE: 9499.67 CELLS/uL
  ABSOLUTE MONOCYTE: 0 CELLS/uL
  ABSOLUTE SEGMENTED NEUTROPHIL: 1135.67 CELLS/uL
  BASOPHIL: 0%
  EOSINOPHIL: 0.33%
  ERYTHROCYTE COUNT: 6.28 x10E6/uL
  HEMATOCRIT: 37.87%
  HEMOGLOBIN: 14.4 G/DL
  LEUKOCYTE COUNT: 10.67 x10E3/uL
  LYMPHOCYTE: 88.67%
  MEAN CORPUSCULAR HEMOGLOBIN: 22.93 pg
  MEAN CORPUSCULAR HEMOGLOBIN CONCENTRATION: 38.03 G/DL
  MEAN CORPUSCULAR VOLUME: 60.33 fL
  MONOCYTE: 0%
  NEUTROPHIL: 11%
  NUCLEATED RED BLOOD CELLS: 0 /100WBC
  PLATELET COUNT: 1393.33 x10E3/uL
  ALANINE AMINOTRANSFERASE: 46 u/L
  ALBUMIN: 3.87 G/DL
  ALKALINE PHOSPHATASE: 445.33 u/L
  ASPARTATE AMINOTRANSFERASE: 64.67 u/L
  BLOOD UREA NITROGEN: 16 mg/dL
  CARBON DIOXIDE: 32.33 mmol/L
  CHLORIDE: 99 MEQ/L
  CHOLESTEROL: 12.33 mg/dL
  CREATINE PHOSPHOKINASE: 238.67 u/L
  CREATININE: 0.14 mg/dL
  GLUCOSE: 131.33 mg/dL
  LACTATE DEHYDROGENASE: 117.33 u/L
  LIPASE: 7.67 u/L
  PHOSPHORUS: 11.13 mg/dL
  POTASSIUM: 5.01 MEQ/L
  SODIUM: 144.1 MEQ/L
  TOTAL BILIRUBIN: 0.1 mg/dL
  TOTAL PROTEIN: 5.8 G/DL
  URIC ACID: 0.3 mg/dL
